Residues, ends and D or L forms follow the SMILES beside them. *: point of attachment. Acm = CC(=O)NC*
Experiments:
[1] = biological target: T1, PSMA-His6 (Homo sapiens, UniProt Q04609); test: PSMA enzyme assay (NAAG hydrolysis, Amplex Red glutamate detection); type: biochemical; parameters: A 15-mer library was screened against the soluble ectodomain of PSMA; purchased R&D Systems
Method: The glutamic acid/glutamate released from the natural substrate of PSMA, NAAG (N-acetylaspartylglutamate), was analyzed by the fluorescence-based Amplex Red Glutamic Acid/Glutamate Oxidase assay kit (Invitrogen) as previously described, [22], [32], [33]. […] Then NAAG (4 µM, 10 µL) was added to the peptide/PSMA-His6 mixture (37°C, 30 min). The enzymatic reaction was quenched (500 mM NaH2PO4/Na2HPO4, pH 7.4, 10 µL). […] Data was analyzed by non-linear regression with GraphPad Prism.

[2] = biological target: T1, PSMA-His6; test: AlphaScreen competition binding assay
Method: The AlphaScreen competition binding assay was performed based on published procedures [29], [30], [31]. […] The mixture was incubated (ambient temperature, 1 h), and then nickel chelate acceptor beads (5 µL, 120 µg/mL) were added followed by a second incubation (dark, ambient temperature, 1 h). Streptavidin donor beads (5 µL, 120 µg/mL) were added for a final incubation (dark, ambient temperature, 30 m). […] Data was analyzed by non-linear regression with GraphPad Prism.
Only when the peptide binds to PSMA (thus bringing the two beads close to each other), can the AlphaScreen (emission) signal be generated, in which case, the singlet oxygen generated by the excitation at 680 nm on the donor bead can transfer energy to the adjacent acceptor bead and subsequently produce an emission signal at 520–620 nm.

[3] = NAAG substrate, PSMA-His6, 37°C, read-out: Enzyme inhibition (footnote symbols: no inhibition observed at the stated concentration)
[4] = highest concentration tested without inhibition, limited by solubility of the peptide, read-out: PSMA enzymatic reaction: no inhibition at the stated concentration

T1 sequence (Q04609 44-750 limits assumed): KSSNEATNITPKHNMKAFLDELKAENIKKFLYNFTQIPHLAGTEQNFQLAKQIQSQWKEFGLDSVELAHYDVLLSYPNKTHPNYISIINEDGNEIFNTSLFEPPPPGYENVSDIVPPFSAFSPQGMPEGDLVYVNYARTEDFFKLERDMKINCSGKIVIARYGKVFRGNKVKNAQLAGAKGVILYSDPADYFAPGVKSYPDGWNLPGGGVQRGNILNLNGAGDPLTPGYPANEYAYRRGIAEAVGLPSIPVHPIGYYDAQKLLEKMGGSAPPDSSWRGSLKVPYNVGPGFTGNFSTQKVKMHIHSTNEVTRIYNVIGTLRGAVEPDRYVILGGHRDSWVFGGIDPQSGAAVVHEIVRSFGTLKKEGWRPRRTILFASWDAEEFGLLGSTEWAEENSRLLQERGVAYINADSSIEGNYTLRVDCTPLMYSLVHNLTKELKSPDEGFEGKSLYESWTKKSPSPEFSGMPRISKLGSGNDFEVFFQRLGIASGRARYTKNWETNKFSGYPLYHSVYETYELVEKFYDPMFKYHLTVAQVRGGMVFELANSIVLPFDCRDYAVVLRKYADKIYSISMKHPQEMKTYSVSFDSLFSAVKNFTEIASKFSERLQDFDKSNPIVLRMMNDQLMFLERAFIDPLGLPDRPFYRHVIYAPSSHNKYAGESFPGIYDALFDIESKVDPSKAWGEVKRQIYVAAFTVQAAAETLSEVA

Row | SMILES | IC50 ([1]; against 1 µM NAAG, peptide pre-incubated with PSMA-His6 37°C 30 min, reaction 37°C 30 min, TBS, fluorescence Ex 530/Em 590, read-out: Enzyme inhibition IC50) [µM] | IC50 [1, 3] [µM] | IC50 [1, 4] [µM] | IC50 [2] [µM]
1 | CC(C)[C@H](NC(=O)[C@H](CO)NC(=O)[C@H](Cc1ccccc1)NC(=O)[C@H](CO)NC(=O)[C@H](Cc1c[nH]cn1)NC(=O)[C@@H](N)CO)C(=O)NCC(=O)N[C@@H](CO)C(=O)NCC(=O)N[C@@H](CC(=O)O)C(=O)N[C@@H](Cc1c[nH]cn1)C(=O)N[C@@H](CO)C(=O)N1CCC[C@H]1C(=O)N[C@@H](Cc1ccccc1)C(=O)N[C@H](C(=O)NCC(=O)NCC(=O)NCC(=O)N[C@@H](CO)C(=O)NCCOCCOCCOCCOCCOCCOCCC(=O)N[C@@H](CSC1CC(=O)N(CCC(=O)NCCCC[C@H](NC(=O)CCN2C(=O)CC(SC[C@H](NC(=O)CCOCCOCCOCCOCCOCCOCCNC(=O)[C@H](CO)NC(=O)CNC(=O)CNC(=O)CNC(=O)[C@@H](NC(=O)[C@H](Cc3ccccc3)NC(=O)[C@@H]3CCCN3C(=O)[C@H](CO)NC(=O)[C@H](Cc3c[nH]cn3)NC(=O)[C@H](CC(=O)O)NC(=O)CNC(=O)[C@H](CO)NC(=O)CNC(=O)[C@@H](NC(=O)[C@H](CO)NC(=O)[C@H](Cc3ccccc3)NC(=O)[C@H](CO)NC(=O)[C@H](Cc3c[nH]cn3)NC(=O)[C@@H](N)CO)C(C)C)[C@@H](C)O)C(N)=O)C2=O)C(=O)NCCCC[C@H](NC(=O)[C@H](CCCCNC(=O)CCN2C(=O)CC(SC[C@H](NC(=O)CCOCCOCCOCCOCCOCCOCCNC(=O)[C@H](CO)NC(=O)CNC(=O)CNC(=O)CNC(=O)[C@@H](NC(=O)[C@H](Cc3ccccc3)NC(=O)[C@@H]3CCCN3C(=O)[C@H](CO)NC(=O)[C@H](Cc3c[nH]cn3)NC(=O)[C@H](CC(=O)O)NC(=O)CNC(=O)[C@H](CO)NC(=O)CNC(=O)[C@@H](NC(=O)[C@H](CO)NC(=O)[C@H](Cc3ccccc3)NC(=O)[C@H](CO)NC(=O)[C@H](Cc3c[nH]cn3)NC(=O)[C@@H](N)CO)C(C)C)[C@@H](C)O)C(N)=O)C2=O)NC(=O)CCN2C(=O)CC(SC[C@H](NC(=O)CCOCCOCCOCCOCCOCCOCCNC(=O)[C@H](CO)NC(=O)CNC(=O)CNC(=O)CNC(=O)[C@@H](NC(=O)[C@H](Cc3ccccc3)NC(=O)[C@@H]3CCCN3C(=O)[C@H](CO)NC(=O)[C@H](Cc3c[nH]cn3)NC(=O)[C@H](CC(=O)O)NC(=O)CNC(=O)[C@H](CO)NC(=O)CNC(=O)[C@@H](NC(=O)[C@H](CO)NC(=O)[C@H](Cc3ccccc3)NC(=O)[C@H](CO)NC(=O)[C@H](Cc3c[nH]cn3)NC(=O)[C@@H](N)CO)C(C)C)[C@@H](C)O)C(N)=O)C2=O)C(=O)NCCC(=O)O)C1=O)C(N)=O)[C@@H](C)O (stereo partly drawn) [(562)4] | 311 | – | – | –
2 | CC(=O)NCSC[C@H](NC(=O)[C@H](CO)NC(=O)[C@H](Cc1ccccc1)NC(=O)[C@H](Cc1ccccc1)NC(=O)[C@H](CO)NC(=O)[C@@H](N)CC(C)C)C(=O)N[C@@H](Cc1c[nH]c2ccccc12)C(=O)N[C@@H](CC(C)C)C(=O)N[C@@H](CCCNC(=N)N)C(=O)N[C@@H](CCCNC(=N)N)C(=O)N[C@@H](CO)C(=O)N[C@@H](Cc1ccccc1)C(=O)N[C@@H](CO)C(=O)N[C@@H](CC(C)C)C(=O)N[C@H](C(N)=O)[C@@H](C)O [Peptide 564] (H-LSFFSC(Acm)WLRRSFSLT-NH2) | – | > 55.5 | > 55.5 | –
3 | CC[C@H](C)[C@H](NC(=O)[C@H](CSCNC(C)=O)NC(=O)[C@H](CCCNC(=N)N)NC(=O)[C@H](CCSC)NC(=O)[C@H](CC(C)C)NC(=O)[C@H](Cc1ccccc1)NC(=O)[C@H](CC(C)C)NC(=O)[C@H](CC(C)C)NC(=O)[C@H](Cc1ccccc1)NC(=O)[C@H](CCSC)NC(=O)[C@H](CCCNC(=N)N)NC(=O)[C@H](C)N)C(=O)NCC(=O)N[C@@H](CSCNC(C)=O)C(=O)N[C@@H](Cc1ccc(O)cc1)C(N)=O [Peptide 565] (H-ARMFLLFLMRC(Acm)IGC(Acm)Y-NH2; N-terminus assumed) | – | > 14.5 | > 14.5 | > 4.83

— PMC3723849, “Evaluation of Phage Display Discovered Peptides as Ligands for Prostate-Specific Membrane Antigen (PSMA)” (PLoS ONE, 2013)
